# Results: US20120258937A1, “Targeting Estrogen Receptors in the Treatment of Lymphangioleiomyomatosis” (Fox Chase Cancer Center, priority 2011, published 2012)
# Legend:
# [1] = system: MMP2; assay: MMP2 accumulation in cultured ELT3 cells by immunoblotting; format: cell-based, rat
# Experimental: (§1) Cell culture and reagents. ELT-3 cells (Eker rat uterine leiomyoma-derived smooth muscle cells) were cultured in IIA complete medium supplemented with 15% fetal bovine serum (FBS). Prior to the in vitro experiments, cells were maintained in media supplemented with 10% charcoal-stripped FBS for three days, and then serum-starved for 24 hours in serum-free and phenol red-free medium. 17 beta-estradiol (E2, 10 nM, Sigma, St. Louis, Mo.), PD98059 (50 μM, Cell Signaling Technology, Danvers, Mass.), or ICI 182780 (1 μM, Biomol) were added to the cells as indicated.
# (§2) Immunoblotting and antibodies. Cells were rinsed once in ice-cold PBS and lysed in m-PER buffer (50 mM HEPES, pH 7.5, 50 mM NaCl, 5 mM EDTA, 50 mM NaF, 10 mM Na4P2O7, and 1% Triton, Pierce). Lysates were resolved by SDS-PAGE electrophoresis and transferred onto Immobilon P membranes (Millipore, Bedford, Mass.). The following antibodies were used for Western blot analysis: anti-MMP2 (Chemicon), anti-phospho-p42/44 MAPK (T202/Y204), anti-p42/44MAPK, anti-Collagen Type IV (Abnova), anti-Ki67 (BioGenex, San Ramon, Calif.), anti-beta-actin (Sigma), and anti-ERα (Santa Cruz, Calif.). Western blots were developed using horseradish peroxidase-conjugated secondary antibodies and ECL chemiluminescence (Amersham Biosciences, Piscataway, N.J.).
# [2] = system: ELT3 cells; assay: ELT3 xenograft tumor growth, lung metastasis and survival in SCID mice; format: in vivo; details: for effect on estradiol-promoted lung metastases: ELT3 xenograft model of LAM; for mean tumor area: post-inoculation week eight
# Experimental: Animal studies. All animal work was performed in accordance with protocols approved by the Institutional Animal Care and Use Committee at the Brigham and Women's Hospital. Female ovariectomized and male CB17-SCID mice, six to eight weeks of age, were purchased from Taconic (Hudson, N.Y.). One week prior to ELT3 cell injection, 17-beta estradiol or placebo pellets (2.5 mg, 90-day release, Innovative Research America, Sarasota, Fla.) were implanted. For xenograft tumor establishment, 2×10^6 ELT3 cells were bilaterally injected into the rear flanks of the mice. Lung metastases were scored from five-micron H & E stained sections of each lobe by observers blinded to the experimental conditions. […]
# Statistical analyses. Statistical analyses were performed using Student's t-test when comparing two groups. Results are presented as means+SD (Standard Deviation) of experiments performed in triplicate. Differences were considered significant at p<0.05.
# [3] = system: ELT3 xenograft tumors; assay: Analysis of ELT3 xenograft tumors (H&E, immunohistochemistry, TUNEL, immunoblot, real-time RT-PCR); format: in vivo, mice; details: for MMP2 protein level vs placebo-treated: immunoblotting
# Experimental: Animal studies. All animal work was performed in accordance with protocols approved by the Institutional Animal Care and Use Committee at the Brigham and Women's Hospital. Female ovariectomized and male CB17-SCID mice, six to eight weeks of age, were purchased from Taconic (Hudson, N.Y.). One week prior to ELT3 cell injection, 17-beta estradiol or placebo pellets (2.5 mg, 90-day release, Innovative Research America, Sarasota, Fla.) were implanted. For xenograft tumor establishment, 2×10^6 ELT3 cells were bilaterally injected into the rear flanks of the mice. Lung metastases were scored from five-micron H & E stained sections of each lobe by observers blinded to the experimental conditions. Fulvestrant (1 mg/day, intramuscular injection) or Doxycycline (0.7 mg/day, 60-day release, Innovative Research America) treatments were initiated one day post-cell inoculation.
# as §2
# (§3) Immunohistochemistry. Sections were deparaffinized, incubated overnight with primary antibodies at 4° C. in a humidified chamber and then rinsed and incubated with biotinylated secondary antibodies for 30 minutes at room temperature. Slides were developed using the Broad Spectrum AEC Histostain®-Plus or Histostain®-Plus kit (Invitrogen), and they were counterstained with Gill's Hematoxylin. TUNEL assay reagent was from Roche. Gelatin zymography. Conditioned media from cultured cells were collected, filtered through […] Nalgene filter, and subjected for gel electrophoresis on 10% SDS-PAGE containing 0.1% gelatin (Invitrogen). MMP2 activity was detected according to the manufacture's protocol. Real-time RT-PCR. Total RNA from cultured cells and xenograft tumors was isolated using RNeasy® Mini Kit (Qiagen, Valencia, Calif.). Gene expression was quantified using One-Step qRT-PCR Kits (Invitrogen) in the Applied Biosystems Real-Time PCR System and normalized to beta-actin control amplification.
# [4] = system: MMP2; assay: MMP2 activity in ELT3 conditioned media by gelatin zymography; format: cell-based, rat; details: ELT3 cells
# Experimental: as §1, §3
# [5] = ELT3 xenograft, given on this schedule (one day prior to cell inoculation)
# [6] = estradiol plus drug, immunoblot
# [7] = real-time RT-PCR, female mice, size-matched tumors
structure (smiles),measurement,setting,value
COc1cccc(-c2cc(=O)c3ccccc3o2)c1N [PD98059],effect on estradiol's enhancement of MMP2 accumulation,"[1]; 30 minutes preincubation, after two hours of estradiol treatment",strongly blocked
C[C@H]1c2cccc(O)c2C(=O)C2=C(O)[C@]3(O)C(=O)C(C(N)=O)=C(O)[C@@H](N(C)C)[C@@H]3[C@@H](O)[C@@H]21 [Doxycycline],average number of lung metastases,[2]; drug plus estradiol,9 metastases/mouse
same,range of number of lung metastases,[2]; drug plus estradiol,6-18 metastases/mouse
same,effect on estradiol-promoted lung metastases,[2]; drug plus estradiol,does not inhibit
same,mice with lung metastases,"[2]; drug plus estradiol, four of five mice",80%
same,mean tumor area,[2]; drug plus estradiol,333±142 mm^2
same,mean tumor area,[2]; drug plus placebo,193±80 mm^2
CO[C@H]1C[C@@H]2CC[C@@H](C)[C@@](O)(O2)C(=O)C(=O)N2CCCC[C@H]2C(=O)O[C@H]([C@H](C)C[C@@H]2CC[C@@H](OCCO)[C@H](OC)C2)CC(=O)[C@H](C)/C=C(\C)[C@@H](O)[C@@H](OC)C(=O)[C@H](C)C[C@H](C)/C=C/C=C/C=C/1C [RAD001],lung metastasis,[2]; [5],completely blocked
same,subcutaneous tumor development,[2]; [5],completely blocked
C[C@]12CC[C@@H]3c4ccc(O)cc4C[C@@H](CCCCCCCCC[S+]([O-])CCCC(F)(F)C(F)(F)F)[C@H]3[C@@H]1CC[C@@H]2O (stereo partly drawn) [Fulvestrant],effect on estradiol-promoted lung metastases,[2]; drug plus estradiol,completely blocked
same,effect on survival of estradiol-treated mice bearing xenograft tumors,"[2]; drug plus estradiol, Kaplan-Meier",significantly increased
same,mean tumor area,[2]; drug plus estradiol,259±83 mm^2
same,cell death (TUNEL staining) in xenograft tumors,[3]; drug in estradiol-treated mice,did not affect
same,cell proliferation (Ki-67 immunoreactivity) in xenograft tumors,[3]; drug in estradiol-treated mice,did not affect
same,ECM organization in xenograft tumors,[3]; drug plus estradiol-treated animals,well-maintained ECM network
same,ECM organization in xenograft tumors,[3]; drug plus placebo-treated animals,dense bundles of collagen fibers
same,ERα in tumors,[3]; [6],lower levels
same,phospho-p42/44 MAPK in tumors,[3]; [6],lower levels
same,effect on estradiol-stimulated MMP2 activity,"[4]; 4 hours pretreatment, then estradiol stimulation",almost completely blocked
"C[C@]12CC[C@@H]3c4ccc(O)cc4CC[C@H]3[C@@H]1CC[C@@H]2O [estradiol, 17 beta-estradiol]",average number of lung metastases,[2]; E2 alone,10 metastases/mouse
same,range of number of lung metastases,[2]; E2 alone,4-37 metastases/mouse
same,mice with pulmonary metastases,"[2]; E2 alone, five of nine mice",56%
same,increase in pulmonary metastasis of ELT3 cells,"[2]; E2 alone, mice bearing xenograft tumors",three- to five-fold
same,overall survival vs placebo-treated mice,"[2]; estradiol alone, mice bearing xenograft tumors",reduced overall survival
same,mean tumor area,[2]; estrogen alone,251±65 mm^2
same,increase of MMP2 accumulation,[1]; within two to four hours of estradiol treatment,five to seven-fold
same,type IV collagen in xenograft tumors,"[3]; estradiol alone vs placebo, female and male mice",marked reduction
same,ECM organization in xenograft tumors,"[3]; estradiol alone vs placebo, female and male mice, H&E",disrupted ECM network
same,MMP2 protein level vs placebo-treated,[3]; female mice,1.8 fold
same,MMP2 protein level vs placebo-treated,[3]; male mice,2.5 fold
same,MMP2 transcript level vs placebo-treated,[3]; [7],5 fold
same,MMP9 transcript level vs placebo-treated,[3]; [7],28 fold
same,progesterone receptor (PgR) level vs placebo-treated,"[3]; real-time RT-PCR, xenograft tumors",4 fold
same,increase of MMP2 activity,[4]; estradiol stimulation for 24 hours,eight-fold
same,duration of estradiol-stimulated MMP2 activity,[4]; up to 120 minutes stimulation,sustained throughout the 120 minutes stimulation
same,increase of active MMP2 level,[4]; within five minutes of estradiol stimulation,three-fold
